Data reported in patent US4278686A, “Carbapenum derivatives, a process for their preparation and their use in pharmaceutical compositions and intermediates” (Beecham Group Limited, priority 1978, dated 1981).
Where two headings read alike, the source gives them in different places.

Assays:
Assay type in all cases: cell-based
[1] = system: Citrobacter freundii E8; assay: minimum inhibitory concentration, Citrobacter freundii E8 (DST agar+10% horse blood)
Method: (§1) The minimum inhibitory concentrations (MIC) of the compound (e54) was determined using a standard DST agar+10% horse blood substrate. The tests used an undiluted inoculum of bacteria. […]
(§2) The minimum inhibitory concentrations (MIC) of this compound was determined using a standard DST agar+10% horse blood substrate.
(§3) The minimum inhibitory concentrations (MIC) of this compound was determined using a standard DST agar+10% horse blood substrate. The tests used an undiluted inoculum of bacteria.

[2] = system: Staphylococcus aureus 1517; assay: minimum inhibitory concentration, Staphylococcus aureus 1517 (DST agar+10% horse blood)
Method: as §1, §2, §3

[3] = system: Proteus rettgeri WM16; assay: minimum inhibitory concentration, Proteus rettgeri WM16 (DST agar+10% horse blood); conditions: Providencia rettgeri
Method: as §1, §2, §3

[4] = system: Proteus vulgaris WO91; assay: minimum inhibitory concentration, Proteus vulgaris WO91 (DST agar+10% horse blood)
Method: as §1, §2, §3

[5] = system: Proteus mirabilis C977; assay: minimum inhibitory concentration, Proteus mirabilis C977 (DST agar+10% horse blood)
Method: as §1, §2, §3

[6] = system: Salmonella typhimurium CT10; assay: minimum inhibitory concentration, Salmonella typhimurium CT10 (DST agar+10% horse blood); conditions: Salmonella enterica
Method: as §1, §2, §3

[7] = system: Bacillus subtilis A; assay: minimum inhibitory concentration, Bacillus subtilis A (DST agar+10% horse blood)
Method: as §1, §2, §3

[8] = system: Staphylococcus aureus Oxford; assay: minimum inhibitory concentration, Staphylococcus aureus Oxford (DST agar+10% horse blood)
Method: as §1, §2, §3

[9] = system: Shigella sonnei MB 11967; assay: minimum inhibitory concentration, Shigella sonnei MB 11967 (DST agar+10% horse blood); conditions: MB11967
Method: as §1, §2, §3

[10] = system: Staphylococcus aureus Russell; assay: minimum inhibitory concentration, Staphylococcus aureus Russell (DST agar+10% horse blood)
Method: as §1, §2, §3

[11] = system: Klebsiella aerogenes A; assay: minimum inhibitory concentration, Klebsiella aerogenes A (DST agar+10% horse blood)
Method: as §1, §2, §3

[12] = system: Streptococcus pneumoniae CN33; assay: minimum inhibitory concentration, Streptococcus pneumoniae CN33 (DST agar+10% horse blood)
Method: as §1, §2, §3

[13] = system: Enterobacter cloacae N1; assay: minimum inhibitory concentration, Enterobacter cloacae N1 (DST agar+10% horse blood); conditions: Enterobacter cloacae, Enterobactor cloacae N1
Method: as §1, §2, §3

[14] = system: Escherichia coli JT 39; assay: minimum inhibitory concentration, Escherichia coli JT 39 (DST agar+10% horse blood); conditions: JT39
Method: as §1, §2, §3

[15] = system: Pseudomonas aeruginosa A; assay: minimum inhibitory concentration, Pseudomonas aeruginosa A (DST agar+10% horse blood)
Method: as §1, §2, §3

[16] = system: E. coli ESS; assay: minimum inhibitory concentration, E. coli ESS (DST agar+10% horse blood); conditions: Escherichia coli
Method: as §1, §2, §3

[17] = system: Serratia marcescens US20; assay: minimum inhibitory concentration, Serratia marcescens US20 (DST agar+10% horse blood)
Method: as §1, §2, §3

[18] = system: Escherichia coli 0111; assay: minimum inhibitory concentration, Escherichia coli 0111 (DST agar+10% horse blood)
Method: as §1, §2, §3

[19] = system: Proteus morganii I580; assay: minimum inhibitory concentration, Proteus morganii I580 (DST agar+10% horse blood); conditions: Morganella morganii
Method: The minimum inhibitory concentrations (MIC) of the compound (e54) was determined using a standard DST agar+10% horse blood substrate. The tests used an undiluted inoculum of bacteria.
Sodium (5R,6S)-3-(2-acetamidoethylthio)--6-ethyl-7-oxo-1-azabicyclo[3.2.0]-hept-2-ene-2-carboxylate [drawing 60] p-Methoxycarbonylbenzyl (5R,6S)-3-(2-acetamidoethylthio)-6-ethyl-7-oxo-1-azabicyclo[3.2.0]hept-2-ene-2-carboxylate (e58) (18 mg) was added to the cathodic compartment of an H-type divided two-compartment electrochemical cell, with a mercury cathode and a platinum anode. The cell contained degassed 0.1 M n-Bu4 NI in dimethylformamide as electrolyte. The volume of the catholyte was about 15 ml [glacial acetic acid (about 10 mg) added] and the volume of the anolyte was about 8 ml. A potentiostat was employed to fix the potential of the cathode at -1.9 V with respect to the standard calomel electrode, and the initial current, about 56 mA, fell to about 15 mA after about 15 min. The catholyte was removed from the cell and the solvent was evaporated in vacuo. The residue was taken up in CH2 Cl2 (10 ml) and washed with water (10 ml). The aqueous phase was separated and washed with CH2 Cl2. The aqueous phase, containing the tetrabutylammonium salt corresponding to (e63) was passed through an Amberlite IR 120 (Na form) column (17×1 cm) and the eluate was reduced to low volume by evaporation in vacuo. The residue was passed through a Biogel P-2 column, to yield fractions containing sodium (5R,6S)-3-(2-acetamidoethylthio)-6-ethyl-7-oxo-1-azabicyclo[3.2.0]hept-2-ene-2-carboxylate (e63) having λmax 298 nm. The minimum inhibitory concentrations (MIC) of this compound was determined using a standard DST agar+10% horse blood substrate.
Sodium (5R,6S)-3-[(E)-2-acetamidoethenylthio]-6-ethyl-7-oxo-1-azabicyclo[3.2.0]hept-2-ene-2-carboxylate [drawing 68] p-Methoxycarbonylbenzyl (5R,6S)-3-[(E)-2-acetamidoethenylthio]-6-ethyl-7-oxo-1-azabicyclo[3.2.0]hept-2-ene-2-carboxylate (e72) (64 mg) in solution in 0.1 M (n-C4 H9)4 NBF4 in dry DMF was added to the cathodic compartment of a divided cylindrical electrochemical cell, with a mercury cathode and platinum anode. The volume of electrolyte in the cathodic compartment was about 25 ml, and in the anodic compartment about 10 ml. Acetic acid (12 mg) was added to the cathodic compartment and ethanol (250 mg) was added to the anodic compartment. The cell was degassed by passing argon for 30 min. The potentiostat was engaged to maintain the potential of the cathode at -1.9 V w.r.t. standard calomel electrode. The initial current (40 mA) fell to about 5 mA after 25 min. The solvent was removed from the catholyte by evaporation in vacuo and the residual oil was taken up in CH2 Cl2 (20 ml) and extracted with water (15 ml) containing sodium tetrafluoroborate (100 mg). The aqueous extract was washed with CH2 Cl2 and then passed down an Amberlite 1R 120 column (1×20 cm) in the sodium form. The volume of the eluate was reduced to about 5 ml by evaporation in vacuo and loaded onto a Biogel P-2 column (18×3 cm). Elution with water yielded fractions containing sodium (5R,6S)-3-[(E)-2-acetamidoethenylthio]-6-ethyl-7-oxo-1-azabicyclo[3.2.0]hept-2-ene-2-carboxylate (e73) λmax 308 nm. The minimum inhibitory concentrations (MIC) of this compound was determined using a standard DST agar+10% horse blood substrate.
Sodium (5R,6R)-3-[(E)-2-acetamidoethenylthio]-6-(1-benzylthioethyl)-7-oxo-1-azabicyclo[3.2.0]hept-2-ene-2-carboxylate [drawing 87] The least polar crystalline isomer of the ester (e93) (40 mg) obtained in Example 70 was added to a mixture of 5% Pd on C (60 mg) in 20% aqueous dioxan (5 ml) which had been prehydrogenated for 0.5 h. Hydrogenation was continued for 4 h and the mixture was filtered through Celite after adding NaHCO3 (7 mg) and water (10 ml). The solution was concentrated to a volume of about 10 ml and was then washed with ethyl acetate (3×30 ml). […]

[20] = system: Streptococcus faecalis I; assay: minimum inhibitory concentration, Streptococcus faecalis I (DST agar+10% horse blood); conditions: Enterococcus faecalis
Method: as §1, §2, §3

[21] = system: Streptococcus pyogenes CN10; assay: minimum inhibitory concentration, Streptococcus pyogenes CN10 (DST agar+10% horse blood)
Method: as §1, §2, §3

[22] = Proteus morganii I580, DST agar+10% horse blood, read-out: MIC

Compound | MIC [1] | MIC [2] | MIC [3] | MIC [4] | MIC [5] | MIC [6] | MIC [7] | MIC [8] | MIC [9] | MIC [10] | MIC [11] | MIC [12] | MIC [13] | MIC [14] | MIC [15] | MIC [16] | MIC [17] | MIC [18] | MIC [20] | MIC [21] | further results
CC[C@@H]1C(=O)N2C(C(=O)[O-])=C(S/C=C/NC(C)=O)C[C@H]12.[Na+] [e73, sodium (5R,6S)-3-[(E)-2-acetamidoethenylthio]-6-ethyl-7-oxo-1-azabicyclo[3.2.0]hept-2-ene-2-carboxylate] | 2.5 µg/mL | > 40 µg/mL | 10 µg/mL | 10 µg/mL | 10 µg/mL | 1.2 µg/mL | 1.2 µg/mL | 0.6 µg/mL | 2.5 µg/mL | 2.5 µg/mL | 2.5 µg/mL | ≤ 0.1 µg/mL | 2.5 µg/mL | 10 µg/mL | > 40 µg/mL | 0.3 µg/mL | 5 µg/mL | 2.5 µg/mL | 40 µg/mL | – | MIC [19, 22]: 5 µg/mL
CC(=O)N/C=C/SC1=C(C(=O)[O-])N2C(=O)[C@H](C(C)SCc3ccccc3)[C@H]2C1.[Na+] (stereo partly drawn) [e94, Sodium (5R,6R)-3-[(E)-2-acetamidoethenylthio]-6-(1-benzylthioethyl)-7-oxo-1-azabicyclo[3.2.0]hept-2-ene-2-carboxylate] | 6.2 µg/mL | 50 µg/mL | 6.2 µg/mL | 6.2 µg/mL | 12.5 µg/mL | 1.6 µg/mL | 1.6 µg/mL | 0.4 µg/mL | 1.6 µg/mL | 0.8 µg/mL | 3.1 µg/mL | 0.2 µg/mL | 3.1 µg/mL | 3.1 µg/mL | 50 µg/mL | 0.4 µg/mL | 6.2 µg/mL | 3.1 µg/mL | 25 µg/mL | 0.4 µg/mL | MIC [19, 22]: 6.2 µg/mL
C=CCSC(C)[C@H]1C(=O)N2C(C(=O)[O-])=C(S/C=C/NC(C)=O)C[C@H]12.[Na+] (stereo partly drawn) [e96, Sodium (5R,6R)-3-[(E)-2-acetamidoethenylthio]-6-(1-allylthioethyl)-7-oxo-1-azabicyclo[3.2.0]hept-2-ene-2-carboxylate] | 50 µg/mL | 12.5 µg/mL | 50 µg/mL | 25 µg/mL | 100 µg/mL | 25 µg/mL | 1.6 µg/mL | 0.8 µg/mL | 25 µg/mL | 1.6 µg/mL | 6.2 µg/mL | ≤ 0.2 µg/mL | 25 µg/mL | 25 µg/mL | > 100 µg/mL | 1.6 µg/mL | 50 µg/mL | 50 µg/mL | 50 µg/mL | 0.4 µg/mL | MIC ([19]; I580): 50 µg/mL
CC(=O)N/C=C/SC1=C(C(=O)[O-])N2C(=O)[C@H](C(C)SCCNC(C)=O)[C@H]2C1.[Na+] (stereo partly drawn) [e98, Sodium (5R,6R)-3-[(E)-2-acetamidoethenylthio]-6-[1-(2-acetamidoethylthio)ethyl]-7-oxo-1-azabicyclo[3.2.0]hept-2-ene-2-carboxylate] | 5 µg/mL | 12.5 µg/mL | 12.5 µg/mL | 12.5 µg/mL | 12.5 µg/mL | 2.5 µg/mL | 2.5 µg/mL | 1.2 µg/mL | 5 µg/mL | 2.5 µg/mL | 5 µg/mL | 0.2 µg/mL | 5 µg/mL | 5 µg/mL | > 50 µg/mL | 1.2 µg/mL | 12.5 µg/mL | 5 µg/mL | 50 µg/mL | 0.5 µg/mL | MIC ([19]; I580): 25 µg/mL
